According to PubChem BioAssay AID1963849 (Molecular Pharmacology Branch, DTP, NCI, 2024):

Tested on: 299254-011-R-J1-PDC complex spheroid viability
Test: Anticancer human tumor 299254-011-R-J1-PDC patient-derived melanoma cell line growth inhibition [POLQ]
Settings: for IC50: curve of first compound; for viability, T/C: stronger effect = lower value
In short: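 Complex spheroid viability model combining PDC tumour cells with endothelial (HUVEC) and MSC stromal cells. Novobiocin, ART-558 or RP6685 were tested singly and in combination with standard and investigational anticancer drugs. Each was titrated in half-log steps from near clinical Cmax, or from 10 microM where Cmax was unknown.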

[1] = second compound 0.0316 µM, first compound 0.0316 µM
[2] = second compound 0.0316 µM, first compound 0.1 µM
[3] = second compound 0.0316 µM, first compound 0.316 µM
[4] = second compound 0.0316 µM, first compound 1 µM
[5] = second compound 0.0316 µM, first compound 3.16 µM
[6] = second compound 0.0316 µM, first compound 10 µM
[7] = second compound 0.1 µM, first compound 0.0316 µM
[8] = second compound 0.1 µM, first compound 0.1 µM
[9] = second compound 0.1 µM, first compound 0.316 µM
[10] = second compound 0.1 µM, first compound 1 µM
[11] = second compound 0.1 µM, first compound 3.16 µM
[12] = second compound 0.1 µM, first compound 10 µM
[13] = second compound 0.316 µM, first compound 0.0316 µM
[14] = second compound 0.316 µM, first compound 0.1 µM
[15] = second compound 0.316 µM, first compound 0.316 µM
[16] = second compound 0.316 µM, first compound 1 µM
[17] = second compound 0.316 µM, first compound 3.16 µM
[18] = second compound 0.316 µM, first compound 10 µM
[19] = second compound 1 µM, first compound 0.0316 µM
[20] = second compound 1 µM, first compound 0.1 µM
[21] = second compound 1 µM, first compound 0.316 µM
[22] = second compound 1 µM, first compound 1 µM
[23] = second compound 1 µM, first compound 3.16 µM
[24] = second compound 1 µM, first compound 10 µM
[25] = second compound 3.16 µM, first compound 0.0316 µM
[26] = second compound 3.16 µM, first compound 0.1 µM
[27] = second compound 3.16 µM, first compound 0.316 µM
[28] = second compound 3.16 µM, first compound 1 µM
[29] = second compound 3.16 µM, first compound 3.16 µM
[30] = second compound 3.16 µM, first compound 10 µM
[31] = second compound 10 µM, first compound 0.0316 µM
[32] = second compound 10 µM, first compound 0.1 µM
[33] = second compound 10 µM, first compound 0.316 µM
[34] = second compound 10 µM, first compound 1 µM
[35] = second compound 10 µM, first compound 3.16 µM
[36] = second compound 10 µM, first compound 10 µM
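Note: spheroids exposed to drugs for one week before measurement.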
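Throughout, for viability, T/C: percent viability relative to DMSO vehicle control taken as 100%.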

COc1cc(C2c3cc4c(cc3C(OC3OC5COC(C)OC5C(O)C3O)C3COC(=O)C23)OCO4)cc(OC)c1O (stereo unspecified) + Cc1cccc(N(C)C(=O)C2C(O)CCN2c2nc(C)cc(C(F)(F)F)c2C#N)c1
IC50 (second compound 0.0316 µM): 9.54 µM
IC50 (second compound 0.1 µM): > 10 µM
IC50 (second compound 0.316 µM): > 10 µM
IC50 (second compound 1 µM): > 10 µM
IC50 (second compound 3.16 µM): > 10 µM
IC50 (second compound 10 µM): > 10 µM
viability, T/C [1]: 87.6%
viability, T/C [2]: 89.2%
viability, T/C [3]: 102%
viability, T/C [4]: 86.8%
viability, T/C [5]: 75.6%
viability, T/C [6]: 48.9%
viability, T/C [7]: 98%
viability, T/C [8]: 91.9%
viability, T/C [9]: 107%
viability, T/C [10]: 87.2%
viability, T/C [11]: 68%
viability, T/C [12]: 54.8%
viability, T/C [13]: 94.6%
viability, T/C [14]: 102%
viability, T/C [15]: 101%
viability, T/C [16]: 99.5%
viability, T/C [17]: 70%
viability, T/C [18]: 59.5%
viability, T/C [19]: 107%
viability, T/C [20]: 93.1%
viability, T/C [21]: 91.6%
viability, T/C [22]: 79.2%
viability, T/C [23]: 76%
viability, T/C [24]: 58%
viability, T/C [25]: 98.5%
viability, T/C [26]: 86.5%
viability, T/C [27]: 88%
viability, T/C [28]: 97.3%
viability, T/C [29]: 74.8%
viability, T/C [30]: 53.9%
viability, T/C [31]: 84.5%
viability, T/C [32]: 86.7%
viability, T/C [33]: 86.1%
viability, T/C [34]: 82.8%
viability, T/C [35]: 60.2%
viability, T/C [36]: 59.2%

COc1cccc2c1C(=O)c1c(O)c3c(c(O)c1C2=O)CC(O)(C(=O)CO)CC3OC1CC(N)C(O)C(C)O1 (stereo unspecified) + Cc1cccc(N(C)C(=O)C2C(O)CCN2c2nc(C)cc(C(F)(F)F)c2C#N)c1
IC50 (second compound 0.0316 µM): 0.565 µM
IC50 (second compound 0.1 µM): 0.803 µM
IC50 (second compound 0.316 µM): 0.763 µM
IC50 (second compound 1 µM): 0.67 µM
IC50 (second compound 3.16 µM): 0.567 µM
IC50 (second compound 10 µM): 0.352 µM
viability, T/C [1]: 111%
viability, T/C [2]: 77.3%
viability, T/C [3]: 64.9%
viability, T/C [4]: 44.1%
viability, T/C [5]: 12.2%
viability, T/C [6]: 0.75%
viability, T/C [7]: 83.7%
viability, T/C [8]: 75.8%
viability, T/C [9]: 77.4%
viability, T/C [10]: 42.9%
viability, T/C [11]: 11.7%
viability, T/C [12]: 0.68%
viability, T/C [13]: 97.7%
viability, T/C [14]: 83.2%
viability, T/C [15]: 75.2%
viability, T/C [16]: 43.8%
viability, T/C [17]: 11.4%
viability, T/C [18]: 1.03%
viability, T/C [19]: 105%
viability, T/C [20]: 89.8%
viability, T/C [21]: 61.7%
viability, T/C [22]: 48.6%
viability, T/C [23]: 12%
viability, T/C [24]: 0.75%
viability, T/C [25]: 100%
viability, T/C [26]: 74.8%
viability, T/C [27]: 68.8%
viability, T/C [28]: 38.9%
viability, T/C [29]: 8.88%
viability, T/C [30]: 0.51%
viability, T/C [31]: 102%
viability, T/C [32]: 74.6%
viability, T/C [33]: 59.9%
viability, T/C [34]: 19.8%
viability, T/C [35]: 0.75%
viability, T/C [36]: 0.31%

O=c1[nH]cc(F)c(=O)[nH]1 + Cc1cccc(N(C)C(=O)C2C(O)CCN2c2nc(C)cc(C(F)(F)F)c2C#N)c1
IC50 (second compound 0.0316 µM): > 10 µM
IC50 (second compound 0.1 µM): > 10 µM
IC50 (second compound 0.316 µM): > 10 µM
IC50 (second compound 1 µM): > 10 µM
IC50 (second compound 3.16 µM): > 10 µM
IC50 (second compound 10 µM): > 10 µM
viability, T/C [1]: 115%
viability, T/C [2]: 88%
viability, T/C [3]: 105%
viability, T/C [4]: 97.3%
viability, T/C [5]: 76.1%
viability, T/C [6]: 73%
viability, T/C [7]: 105%
viability, T/C [8]: 92.4%
viability, T/C [9]: 96%
viability, T/C [10]: 94.8%
viability, T/C [11]: 88.1%
viability, T/C [12]: 81.2%
viability, T/C [13]: 111%
viability, T/C [14]: 118%
viability, T/C [15]: 106%
viability, T/C [16]: 99.3%
viability, T/C [17]: 98.9%
viability, T/C [18]: 67.6%
viability, T/C [19]: 112%
viability, T/C [20]: 99.7%
viability, T/C [21]: 98.2%
viability, T/C [22]: 92.3%
viability, T/C [23]: 88%
viability, T/C [24]: 68.1%
viability, T/C [25]: 114%
viability, T/C [26]: 103%
viability, T/C [27]: 89.1%
viability, T/C [28]: 114%
viability, T/C [29]: 90.3%
viability, T/C [30]: 65.2%
viability, T/C [31]: 103%
viability, T/C [32]: 98%
viability, T/C [33]: 93.4%
viability, T/C [34]: 87%
viability, T/C [35]: 80.9%
viability, T/C [36]: 69.3%
